Data reported in publication PMC3153478, “Structural Basis for Species Specific Inhibition of 17β-Hydroxysteroid Dehydrogenase Type 1 (17β-HSD1): Computational Study and Biological Validation” (PLoS ONE, 2011).
Where two headings read alike, the source gives them in different places.

Legend:
[1] = tested on: human 17β-HSD1; parameters: method as in earlier work; settings: Human placental, cytosolic fraction, substrate E1, 500 nM, cofactor NADH, 500 µM; ref literature (references indicated with the structural formulas in Fig. 3); read-out: Human IC50 17ß-HSD1; cited from earlier work
[2] = target: marmoset 17β-HSD2 (Callithrix jacchus, UniProt U3BEV1); experiment: Inhibition of marmoset 17β-HSD2 (placental microsomes, tritiated E2, HPLC); assay type: biochemical, marmoset monkey (callithrix jacchus); settings: Logit transformed values calculated from % inhibition at 50 nM inhibitor concentration (trend for <30% or >70%), placental microsomal fraction, substrate E2 500 nM, NAD+ 1500 µM; for IC50: read-out: Marmoset IC50 17ß-HSD2
Procedure: (§1) Marmoset placental tissue was used as enzyme source and the proteins were partially purified following a described procedure. Tritiated E1 was incubated with 17β-HSD1, cofactor and inhibitor. The separation of substrate and product was performed by HPLC. In an assay similar to the 17β-HSD1 test, marmoset placental microsomes containing 17β-HSD2 were incubated with tritiated E2 in the presence of NAD^+ and inhibitor. Labelled product was quantified after HPLC separation.
(§2) [2, 4, 6, 7-^3H]-E1 and [2, 4, 6, 7-^3H]-E2 were bought from Perkin Elmer, Boston. Quickszint Flow 302 scintillator fluid was bought from Zinsser Analytic, Frankfurt. Marmoset 17β-HSD1 and 17β-HSD2 were obtained from marmoset placenta according to previously described procedures. Fresh marmoset placenta was homogenized and cytosolic and microsomal fractions were separated by centrifugation. For the partial purification of 17β-HSD1, the cytosolic fraction was precipitated with ammonium sulfate. 17β-HSD2 was obtained from the microsomal fraction.
The 17β-HSD2 inhibition assay was performed similarly to the 17β-HSD1 procedure. The microsomal fraction was incubated with NAD^+ [1500 µM], test compound and a mixture of unlabelled- and [2, 4, 6, 7-^3H]-E2 (final concentration: 500 nM, 0.11 µCi) for 20 min at 37°C. Further treatment of the samples and HPLC separation was carried out as mentioned above. The conversion rate was calculated after analysis of the resulting chromatograms according to the following equation: [drawing 2] .

[3] = target: T1, marmoset 17β-HSD1 (Callithrix jacchus, UniProt Q9GME2); experiment: Inhibition of marmoset 17β-HSD1 (placental cytosolic fraction, tritiated E1, HPLC); assay type: biochemical, marmoset monkey (callithrix jacchus); settings: for IC50: read-out: Marmoset IC50 17ß-HSD1
T1 construct: For the partial purification of 17β-HSD1, the cytosolic fraction was precipitated with ammonium sulfate; from tissue; host or cells: marmoset placenta, cytosolic fraction, ammonium sulfate precipitate
T1 sequence (Q9GME2 1-314): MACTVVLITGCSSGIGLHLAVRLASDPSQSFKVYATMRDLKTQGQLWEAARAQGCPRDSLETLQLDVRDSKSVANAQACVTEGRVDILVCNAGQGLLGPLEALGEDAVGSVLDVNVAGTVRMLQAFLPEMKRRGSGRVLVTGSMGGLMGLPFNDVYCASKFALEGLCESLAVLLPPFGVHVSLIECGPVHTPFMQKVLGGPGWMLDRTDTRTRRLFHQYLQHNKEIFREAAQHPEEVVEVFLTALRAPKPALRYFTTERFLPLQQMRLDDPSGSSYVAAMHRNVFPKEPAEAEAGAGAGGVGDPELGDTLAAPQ
Procedure: as §1, §2
Inhibitory activities were evaluated by an established method with minor modifications. Briefly, the enzyme preparation was incubated with NADH [500 µM] in the presence of potential inhibitors at 37°C in a phosphate buffer (50 mM) supplemented with 20% of glycerol and EDTA (1 mM). Inhibitor stock solutions were prepared in DMSO. The final concentration of DMSO was adjusted to 1% in all samples. The enzymatic reaction was started by addition of a mixture of unlabelled- and [2, 4, 6, 7-^3H]-E1 (final concentration: 500 nM, 0.15 µCi). After 10 min, the reaction was stopped by the addition of HgCl2 (10 mM) and the mixture was extracted with diethylether. After evaporation, the steroids were dissolved in acetonitrile. E1 and E2 were separated using acetonitrile/water (45∶55) as mobile phase in a C18 reverse phase chromatography column (Nucleodur C18 Gravity, 3 µm, Macherey-Nagel, Düren) connected to an HPLC-system (Agilent 1200 Series, Agilent Technologies, Waldbronn). Detection and quantification of the steroids were performed using a radioflow detector (Agilent 1200 Series, Agilent Technologies, Waldbronn). The conversion rate was calculated after analysis of the resulting chromatograms according to the following equation: [drawing 1] . Each value was calculated from at least three independent experiments.

[4] = tested on: human 17β-HSD2; parameters: method as in earlier work; settings: Human placental, microsomal fraction, substrate E2, 500 nM, cofactor NAD+, 1500 µM; ref literature (references indicated with the structural formulas in Fig. 3); read-out: Human IC50 17ß-HSD2; cited from earlier work
[5] = Logit transformed values calculated from % inhibition, inhibitor concentration: 5 nM, placental cytosolic fraction, substrate E1 500 nM, NADH 500 µM
[6] = Logit transformed values calculated from % inhibition at 50 nM inhibitor concentration (trend for <30% or >70%), placental cytosolic fraction, substrate E1 500 nM, NADH 500 µM

marmoset 17β-HSD2, sequence (U3BEV1 entry or part of it): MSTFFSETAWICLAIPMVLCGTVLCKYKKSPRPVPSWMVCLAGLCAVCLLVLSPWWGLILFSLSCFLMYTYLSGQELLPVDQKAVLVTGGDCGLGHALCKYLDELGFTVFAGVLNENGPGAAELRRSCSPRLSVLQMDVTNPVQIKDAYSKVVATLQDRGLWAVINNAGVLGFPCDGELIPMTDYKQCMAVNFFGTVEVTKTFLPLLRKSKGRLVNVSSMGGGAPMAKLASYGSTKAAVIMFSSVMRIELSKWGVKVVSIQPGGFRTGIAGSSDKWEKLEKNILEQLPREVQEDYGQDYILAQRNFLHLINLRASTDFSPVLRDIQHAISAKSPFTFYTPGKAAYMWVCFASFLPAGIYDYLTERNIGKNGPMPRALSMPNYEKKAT

| Compound | IC50 [2] | IC50 [3, 5] | IC50 [3, 6] | Inhibitory potency toward marmoset 17β-HSD1 compared to the human enzyme ([3]; comparison in words, marmoset vs human 17β-HSD1) | IC50 [3] | Marmoset IC50 17ß-HSD1 [3, 6] | Marmoset IC50 17ß-HSD2 [2] | IC50 [1] | IC50 [4] |
| --- | --- | --- | --- | --- | --- | --- | --- | --- | --- |
| Oc1ccc(-c2ccc(-c3cccc(O)c3)s2)cc1 [Compound 3] | > 50 nM | – | 31 nM | – | – | – | – | 69 nM | 1950 nM |
| Cc1cc(-c2ccc(-c3cccc(O)c3)s2)ccc1O [Compound 4] | > 50 nM | – | < 50 nM | – | – | – | – | 46 nM | 1970 nM |
| Cc1cc(-c2cnc(-c3cccc(O)c3)s2)ccc1O [Compound 5] | > 50 nM | – | < 50 nM | – | – | – | – | 143 nM | 2020 nM |
| Oc1cccc(-c2ccc3cc(O)ccc3c2)c1 [Compound 14] | – | – | – | – | > 50 nM | – | – | 116 nM | 5640 nM |
| Oc1cccc(-c2ccc3c(-c4cccc(O)c4)c(O)ccc3c2)c1 [Compound 15] | > 50 nM | – | 32 nM | – | – | – | – | 36 nM | 959 nM |
| Oc1cccc(-c2ccc3c(-c4cccnc4)c(O)ccc3c2)c1 [Compound 16] | > 50 nM | – | > 50 nM | – | – | – | – | 26 nM | 1160 nM |
| Oc1cccc(-c2ccc3c(-c4ccccc4)c(O)ccc3c2)c1 [Compound 17] | > 50 nM | – | 52 nM | – | – | – | – | 20 nM | 540 nM |
| Nc1cccc(-c2c(O)ccc3cc(-c4cccc(O)c4)ccc23)c1 [Compound 18] | > 50 nM | – | – | – | – | n.i. | – | 53 nM | – |
| CS(=O)(=O)Nc1cccc(-c2c(O)ccc3cc(-c4cccc(O)c4)ccc23)c1 [Compound 19] | > 50 nM | – | > 50 nM | – | – | – | – | 15 nM | 403 nM |
| CC(=O)Nc1cccc(-c2c(O)ccc3cc(-c4cccc(O)c4)ccc23)c1 [Compound 20] | – | – | > 50 nM | – | – | – | n.i. | 83 nM | 1240 nM |

The next lines start with results.

| IC50 [2] | IC50 [3, 5] | IC50 [3, 6] | Inhibitory potency toward marmoset 17β-HSD1 compared to the human enzyme ([3]; comparison in words, marmoset vs human 17β-HSD1) | IC50 [3] | Marmoset IC50 17ß-HSD1 [3, 6] | Marmoset IC50 17ß-HSD2 [2] | Compound | IC50 [1] | IC50 [4] |
| --- | --- | --- | --- | --- | --- | --- | --- | --- | --- |
| > 50 nM | < 5 nM | – | – | – | – | – | Oc1cccc(-c2ccc(-c3ccc(O)c(F)c3)s2)c1 [Compound 1] | 8 nM | 940 nM |
| > 50 nM | – | 102 nM | – | – | – | – | Oc1ccc(-c2cnc(-c3cccc(O)c3)s2)cc1 [Compound 2] | 50 nM | 4000 nM |
| 85 nM | < 5 nM | – | – | – | – | – | Oc1ccc(-c2ccc(-c3cc(O)cc(F)c3)s2)cc1 [Compound 6] | 42 nM | 463 nM |
| 43 nM | < 5 nM | – | – | – | – | – | Oc1cc(F)cc(-c2ccc(-c3ccc(O)c(F)c3)s2)c1 [Compound 7] | 17 nM | 218 nM |
| 43 nM | – | < 50 nM | Comparable inhibition data | – | – | – | O=C(c1cccc(O)c1)c1ccc(-c2ccc(O)cc2)s1 [Compound 12] | 33 nM | 478 nM |
